From patent US8012956B2, “Tropane compounds” (Exelixis, Inc., priority 2007, dated 2011)
pIC50: −log10 of the molar value.

Target: HSP90 (Homo sapiens, UniProt P07900)
Experiment: HSP90 inhibition (HSP90 IC50)
Type: biochemical

Question: With NC(=O)c1cc(Br)c(C(=O)N[C@H]2C[C@H]3CC[C@@H](C2)N3c2ccc(C(=O)C3CC3)cn2)cc1NC1CCC1 [2-bromo-5-(cyclobutylamino)-N-{8-[5-(cyclopropylcarbonyl)pyridin-2-yl]-8-azabicyclo[3.2.1]oct-3-endo-yl}benzene-1,4-dicarboxamide] as the compound, how does the pIC50 read?
Answer: > 6.30

Question: How did the pIC50 turn out when NC(=O)c1cc(Br)c(C(=O)N[C@H]2C[C@H]3CC[C@@H](C2)N3c2ccc(C(=O)C3CC3)cn2)cc1NC1CCCC1 [2-bromo-5-(cyclopentylamino)-N-{8-[5-(cyclopropylcarbonyl)pyridin-2-yl]-8-azabicyclo[3.2.1]oct-3-endo-yl}benzene-1,4-dicarboxamide] was run?
Answer: > 6.30

Question: CC(C)Nc1cc(C(=O)N[C@H]2C[C@H]3CC[C@@H](C2)N3c2ccc(C(=O)C3CC3)cn2)c(Br)cc1C(N)=O [2-bromo-N-{8-(5-(cyclopropylcarbonyl)pyridin-2-yl]-8-azabicyclo[3.2.1]oct-3-endo-yl}-5-[(1-methylethyl)amino]benzene-1,4-dicarboxamide] was tested. Which pIC50 did it give?
Answer: > 6.30

Question: With CCCNc1cc(C(=O)N[C@H]2C[C@H]3CC[C@@H](C2)N3c2ccc(C(=O)C3CC3)cn2)c(Br)cc1C(N)=O [2-bromo-N-{8-[5-(cyclopropylcarbonyl)pyridin-2-yl]-8-azabicyclo[3.2.1]oct-3-endo-yl}-5-(propylamino)benzene-1,4-dicarboxamide] as the compound, how does the pIC50 read?
Answer: > 6.30

Question: How did the pIC50 turn out when CC(C)(C)Nc1cc(C(=O)N[C@H]2C[C@H]3CC[C@@H](C2)N3c2ccc(C(=O)C3CC3)cn2)c(Br)cc1C(N)=O [2-bromo-N-{8-[5-(cyclopropylcarbonyl)pyridin-2-yl]-8-azabicyclo[3.2.1]oct-3-endo-yl}-5-[(1,1-dimethylethyl)amino]benzene-1,4-dicarboxamide] was run?
Answer: > 6.30

Question: CCC(CC)Nc1cc(C(=O)N[C@H]2C[C@H]3CC[C@@H](C2)N3c2ccc(C(=O)C3CC3)cn2)c(Br)cc1C(N)=O [2-bromo-N-{8-[5-(cyclopropylcarbonyl)pyridin-2-yl]-8-azabicyclo[3.2.1]oct-3-endo-yl}-5-[(1-ethylpropyl)amino]benzene-1,4-dicarboxamide] was tested. Which pIC50 did it give?
Answer: > 6.30

Question: With CC(C)(C)CNc1cc(C(=O)N[C@H]2C[C@H]3CC[C@@H](C2)N3c2ccc(C(=O)C3CC3)cn2)c(Br)cc1C(N)=O [2-bromo-N-{8-[5-(cyclopropylcarbonyl)pyridin-2-yl]-8-azabicyclo[3.2.1]oct-3-endo-yl}-5-[(2,2-dimethylpropyl)amino]benzene-1,4-dicarboxamide] as the compound, how does the pIC50 read?
Answer: > 6.30

Question: With CC(C)CNc1cc(C(=O)N[C@H]2C[C@H]3CC[C@@H](C2)N3c2ccc(C(=O)C3CC3)cn2)c(Br)cc1C(N)=O [2-bromo-N-{8-[5-(cyclopropylcarbonyl)pyridin-2-yl]-8-azabicyclo[3.2.1]oct-3-endo-yl}-5-[(2-methylpropyl)amino]benzene-1,4-dicarboxamide] as the compound, how does the pIC50 read?
Answer: > 6.30

Question: NC(=O)c1cc(Br)c(C(=O)N[C@H]2C[C@H]3CC[C@@H](C2)N3c2ccc(C(=O)C3CC3)cn2)cc1NCCC(F)(F)F [2-bromo-N-{8-[5-(cyclopropylcarbonyl)pyridin-2-yl]-8-azabicyclo[3.2.1]oct-3-endo-yl}-5-[(3,3,3-trifluoropropyl)amino]benzene-1,4-dicarboxamide] was tested. Which pIC50 did it give?
Answer: > 6.30

Question: How did the pIC50 turn out when NC(=O)c1cc(Br)c(C(=O)N[C@H]2C[C@H]3CC[C@@H](C2)N3c2ccc(C(=O)C3CC3)cn2)cc1NCC1CC1 [2-bromo-N-{8-[5-(cyclopropylcarbonyl)pyridin-2-yl]-8-azabicyclo[3.2.1]oct-3-endo-yl}-5-[(cyclopropylmethyl)amino]benzene-1,4-dicarboxamide] was run?
Answer: > 6.30

Question: How did the pIC50 turn out when CC(C)[C@@H](C)Nc1cc(C(=O)NC2CC3CCC(C2)N3c2ccc(C(=O)C3CC3)cn2)c(Br)cc1C(N)=O (stereo partly drawn) [2-bromo-N-{8-[5-(cyclopropylcarbonyl)pyridin-2-yl]-8-azabicyclo[3.2.1]oct-3-endo-yl}-5-{[(1R)-1 2-dimethylpropyl]amino}benzene-1,4-dicarboxamide] was run?
Answer: > 6.30

Question: How did the pIC50 turn out when CC[C@@H](C)Nc1cc(C(=O)NC2CC3CCC(C2)N3c2ccc(C(=O)C3CC3)cn2)c(Br)cc1C(N)=O (stereo partly drawn) [2-bromo-N-{8-[5-(cyclopropylcarbonyl)pyridin-2-yl]-8-azabicyclo[3.2.1]oct-3-endo-yl}-5-{[(1R)-1-methylpropyl]amino}benzene-1,4-dicarboxamide] was run?
Answer: > 6.30

Question: How did the pIC50 turn out when CC(C)[C@H](C)Nc1cc(C(=O)NC2CC3CCC(C2)N3c2ccc(C(=O)C3CC3)cn2)c(Br)cc1C(N)=O (stereo partly drawn) [2-bromo-N-{8-[5-(cyclopropylcarbonyl)pyridin-2-yl]-8-azabicyclo[3.2.1]oct-3-endo-yl}-5-{[(1S)-1,2-dimethylpropyl]amino}benzene-1,4-dicarboxamide] was run?
Answer: > 6.30

Question: With CC(Nc1c(C(N)=O)ccc(C(=O)N[C@H]2C[C@H]3CC[C@@H](C2)N3c2ccc(C(=O)C3CC3)cn2)c1Cl)C1CC1 (stereo partly drawn) [2-chloro-N-{8-[5-(cyclopropylcarbonyl)pyridin-2-yl]-8-azabicyclo[3.2.1]oct-3-endo-yl}-3-[(1-cyclopropylethyl)amino]benzene-1,4-dicarboxamide] as the compound, how does the pIC50 read?
Answer: > 6.30

Question: How did the pIC50 turn out when CCC(CC)Nc1cc(C(=O)N[C@H]2C[C@H]3CC[C@@H](C2)N3c2ccc(C(=O)C3CC3)cn2)c(Cl)cc1C(N)=O [2-chloro-N-{8-[5-(cyclopropylcarbonyl)pyridin-2-yl]-8-azabicyclo[3.2.1]oct-3-endo-yl}-5-[(1-ethylpropyl)amino]benzene-1,4-dicarboxamide] was run?
Answer: > 6.30

Question: How did the pIC50 turn out when COc1c(C(N)=O)ccc(C(=O)NC2CC3CCC(C2)N3c2ccc(C(=O)N[C@@H](C)c3ccc(N4CCN(C)CC4)cc3)cn2)c1C (stereo partly drawn) [2-methyl-3-(methyloxy)-N-(8-{5-[({(1S)-1-[4-(4-methylpiperazin-1-yl)phenyl]ethyl}amino)carbonyl]pyridin-2-yl}-8-azabicyclo[3.2.1]oct-3-endo-yl)benzene-1,4-dicarboxamide] was run?
Answer: > 6.30

Question: How did the pIC50 turn out when Cc1c(OC(N)=O)cccc1C(=O)N[C@H]1C[C@H]2CC[C@@H](C1)N2c1ccc(C(=O)NCc2ccccc2)cn1 [2-methyl-3-({[8-(5-{[(phenylmethyl)amino]carbonyl}pyridin-2-yl)-8-azabicyclo[3.2.1]oct-3-endo-yl]amino}carbonyl)phenyl carbamate] was run?
Answer: 5.00 to 5.70

Question: With Cc1cc(C(N)=O)ccc1C(=O)N[C@H]1C[C@H]2CC[C@@H](C1)N2c1ccc(C(=O)NCc2ccccc2)cn1 [2-methyl-N 1-[8-(5-{[(phenylmethyl)amino]carbonyl}pyridin-2-yl)-8-azabicyclo[3.2.1]oct-3-endo-yl]benzene-1,4-dicarboxamide] as the compound, how does the pIC50 read?
Answer: 6.00 to 6.30

Question: How did the pIC50 turn out when Cc1c(C(N)=O)cccc1C(=O)N[C@H]1C[C@H]2CC[C@@H](C1)N2c1ccc(C(=O)NCc2ccccc2)cn1 [2-methyl-N-[8-(5-{[(phenylmethyl)amino]carbonyl}pyridin-2-yl)-8-azabicyclo[3.2.1]oct-3-endo-yl]benzene-1,3-dicarboxamide] was run?
Answer: 5.00 to 5.70

Question: With CCNc1c(C)c(C(=O)NC2CC3CCC(C2)N3c2ccc(C(=O)N[C@@H](C)c3ccc(N4CCN(C)CC4)cc3)cn2)cc(C)c1C(N)=O (stereo partly drawn) [3-(ethylamino)-2,5-dimethyl-N1-(8-{5-[({(1S)-1-[4-(4-methylpiperazin-1-yl)phenyl]ethyl}amino)carbonyl]pyridin-2-yl}-8-azabicyclo[3.2.1]oct-3-endo-yl)benzene-1,4-dicarboxamide] as the compound, how does the pIC50 read?
Answer: 5.00 to 5.70

Question: How did the pIC50 turn out when CC[C@@H](C)Nc1c(C(N)=O)cc(C)c(C(=O)NC2CC3CCC(C2)N3c2ccc(C(=O)C3CC3)cn2)c1Cl (stereo partly drawn) [3-chloro-N4-{8-[5-(cyclopropylcarbonyl)pyridin-2-yl]-8-azabicyclo[3.2.1]oct-3-endo-yl}-5-methyl-2-{[(1R)-1-methylpropyl]amino}benzene-1,4-dicarboxamide] was run?
Answer: > 6.30

Question: Cc1cc(OC(N)=O)ccc1C(=O)N[C@H]1C[C@H]2CC[C@@H](C1)N2c1ccc(C(=O)NCc2ccccc2)cn1 [3-methyl-4-({[8-(5-{[(phenylmethyl)amino]carbonyl}pyridin-2-yl)-8-azabicyclo[3.2.1]oct-3-endo-yl]amino}carbonyl)phenyl carbamate] was tested. Which pIC50 did it give?
Answer: 5.00 to 5.70

Question: How did the pIC50 turn out when Cc1cc(C(N)=O)c(NC2CCC2)cc1C(=O)N[C@H]1C[C@H]2CC[C@@H](C1)N2c1ccc(C(=O)C2CC2)cn1 [5-(cyclobutylamino)-N-{8-[5-(cyclopropylcarbonyl)pyridin-2-yl]-8-azabicyclo[3.2.1]oct-3-endo-yl}-2-methylbenzene-1,4-dicarboxamide] was run?
Answer: > 6.30

Question: Cc1cc(C(N)=O)c(NC2CCCC2)cc1C(=O)N[C@H]1C[C@H]2CC[C@@H](C1)N2c1ccc(C(=O)C2CC2)cn1 [5-(cyclopentylamino)-N-{8-[5-(cyclopropylcarbonyl)pyridin-2-yl]-8-azabicyclo[3.2.1]oct-3-endo-yl}-2-methylbenzene-1,4-dicarboxamide] was tested. Which pIC50 did it give?
Answer: > 6.30

Question: With CCC(CC)Nc1cc(C(=O)N[C@H]2C[C@H]3CC[C@@H](C2)N3c2ccc(C(=O)CCC3CCN(C)CC3)cn2)c(C)cc1C(N)=O [5-[(1-ethylpropyl)amino]-2-methyl-N-(8-{5-[3-(1-methylpiperidin-4-yl)propanoyl]pyridin-2-yl}-8-azabicyclo[3.2.1]oct-3-endo-yl)benzene-1,4-dicarboxamide] as the compound, how does the pIC50 read?
Answer: > 6.30

Question: With CCC(CC)Nc1cc(C(=O)NC2CC3CCC(C2)N3c2ccc(C(=O)N[C@@H]3CCCN(C(C)C)C3)cn2)c(C)cc1C(N)=O (stereo partly drawn) [5-[(1-ethylpropyl)amino]-2-methyl-N-{8-[5-({[(3R)-1-(1-methylethyl)piperidin-3-yl]amino}carbonyi)pyridin-2-yl]-8-azabicyclo[3.2.1]oct-3-endo-yl}benzene-1,4-dicarboxamide] as the compound, how does the pIC50 read?
Answer: > 6.30

Question: How did the pIC50 turn out when CCC(CC)Nc1cc(C(=O)NC2CC3CCC(C2)N3c2ccc(C(=O)N[C@@H]3CCN(C(C)C)C3)cn2)c(C)cc1C(N)=O (stereo partly drawn) [5-[(1-ethylpropyl)amino]-2-methyl-N-{8-[5-({[(3R)-1-(1-methylethyl)pyrrolidin-3-yl]amino}carbonyl)pyridin-2-yl]-8-azabicyclo[3.2.1]oct-3-endo-yl}benzene-1,4-dicarboxamide] was run?
Answer: > 6.30

Question: CCC(CC)Nc1cc(C(=O)NC2CC3CCC(C2)N3c2ccc(C(=O)NCC3CCCN3CC)cn2)c(C)cc1C(N)=O (stereo not drawn) [5-[(1-ethylpropyl)amino]-N-{8-[5-({[(1-ethylpyrrolidin-2-yl)methyl]amino}carbonyl)pyridin-2-yl]-8-azabicyclo[3.2.1]oct-3-endo-yl}-2-methylbenzene-1,4-dicarboxamide] was tested. Which pIC50 did it give?
Answer: > 6.30
